These results are taken from ChEMBL document CHEMBL6134805, “Dual-acting β-Aminothiochromones: Design, synthesis, and evaluation as antimicrobial and anti-angiogenic agents” (2025).

Each structure is given as a SMILES string. ≈ marks a conversion by molar mass, not a printed value. Calls of active or inactive are those of the source. Bounds are passed on as bounds.

Experiment [1] has as its system Bacillus subtilis. Description: Bactericidal activity against Bacillus subtilis MTCC 13343 by serial dilution method. Type of experiment: functional.
For experiment [2], the system named is Bacillus subtilis. The experiment can be described thus: Antimicrobial activity against Bacillus subtilis MTCC 13343 assessed as reduction in bacterial growth by serial dilution method. Type of experiment: functional.
Experiment [3] concerns Staphylococcus aureus. The experiment can be described thus: Antimicrobial activity against Staphylococcus aureus ATCC 6538 assessed as reduction in bacterial growth by serial dilution method. Type of experiment: functional.
Experiment [4] has as its system Staphylococcus aureus. The experiment can be described thus: Bactericidal activity against Staphylococcus aureus ATCC 6538 by serial dilution method. Type of experiment: functional.
A further experiment concerns Nakaseomyces glabratus. Description: Antimicrobial activity against Candida glabrata MTCC 3019 assessed as reduction in fungal growth by serial dilution method. Type of experiment: functional.
In experiment [5] the test system is HepG2. The experiment can be described thus: Antiangiogenic activity against human HepG2 cells assessed as reduction in area of wound coverage at 6.25 to 12.5 ug/mL by scratch wound healing assay. Type of experiment: functional, cell-based. The following applies: dose 6.25-12.5 µg/ml, time 24-72 hrs.
The test system of experiment [6] is HepG2. The experiment can be described thus: Cytotoxicity against human HepG2 cells assessed as reduction in cell viability at 25 to 100 ug/mL by MTT assay. Type of experiment: functional, cell-based. The following applies: dose 25-100 µg/ml.
The test system of experiment [7] is HepG2. The experiment can be described thus: Antiangiogenic activity against human HepG2 cells assessed as reduction in area of wound coverage at 6.25 ug/mL incubated for 24 to 72 hrs by scratch wound healing assay. Type of experiment: functional, cell-based. The note with it: dose 6.25 µg/ml, time 24-72 hrs.
Experiment [8] relates to HepG2. Description: Antiangiogenic activity against human HepG2 cells assessed as reduction in area of wound coverage incubated for 24 to 72 hrs by scratch wound healing assay. Type of experiment: functional, cell-based. The following applies: dose 6.25-12.5 µg/ml, time 24-72 hrs.
Experiment [9] deals with Candida albicans. The experiment can be described thus: Antimicrobial activity against Candida albicans ATCC 24433 assessed as reduction in fungal growth by serial dilution method. Type of experiment: functional.
The test system of experiment [10] is Pseudomonas aeruginosa. The experiment can be described thus: Antimicrobial activity against Pseudomonas aeruginosa MTCC 11778 assessed as reduction in bacterial growth by serial dilution method. Type of experiment: functional.
The subject of experiment [11] is HepG2. The experiment can be described thus: Antiangiogenic activity against human HepG2 cells assessed as reduction in area of wound coverage at 12.5 ug/mL incubated for 24 to 72 hrs by scratch wound healing assay. Type of experiment: functional, cell-based. The note with it: dose 12.5 µg/ml, time 24-72 hrs.
Experiment [12] relates to HepG2. Description: Antiangiogenic activity against human HepG2 cells assessed as reduction in area of wound coverage at 12.5 ug/mL incubated for 72 hrs by scratch wound healing assay relative to control. Type of experiment: functional. More on the design: scale not given: the % may be the effect or the level left. The following applies: dose 12.5 µg/ml.
Experiment [13] relates to HepG2. Description: Cytotoxicity against human HepG2 cells assessed as reduction in cell viability up to 100 ug/mL by MTT assay relative to control. Type of experiment: functional. The following applies: dose <= 100 µg/ml; up to 100 µg/mL. Background: Tetrazolium dyes change colour on reduction, which living cells bring about.
In experiment [14] the test system is Escherichia coli. Description: Antimicrobial activity against Escherichia coli ATCC 10799 assessed as reduction in bacterial growth by serial dilution method. Type of experiment: functional.
The test system of experiment [15] is Candida albicans. The experiment can be described thus: Fungicidal activity against Candida albicans ATCC 24433 by serial dilution method. Type of experiment: functional.
For experiment [16], the system named is Pseudomonas aeruginosa. The experiment can be described thus: Bactericidal activity against Pseudomonas aeruginosa MTCC 11778 by serial dilution method. Type of experiment: functional.
The subject of experiment [17] is Bacillus subtilis. The experiment can be described thus: Selectivity ratio of MBC for bactericidal activity against Bacillus subtilis MTCC 13343 to MIC for antimicrobial activity against Bacillus subtilis MTCC 13343. Type of experiment: functional.
Experiment [18] relates to HepG2. The experiment can be described thus: Antiangiogenic activity against human HepG2 cells assessed as reduction in area of wound coverage at 12.5 ug/mL incubated for 48 hrs by scratch wound healing assay. The following applies: dose 12.5 µg/ml. Type of experiment: functional.
In experiment [19] the test system is HepG2. The experiment can be described thus: Cytotoxicity against human HepG2 cells assessed as reduction in cell viability at 100 ug/mL by MTT assay relative to control. Type of experiment: functional. The following applies: dose 100 µg/ml.
In experiment [20] the test system is HepG2. The experiment can be described thus: Antiangiogenic activity against human HepG2 cells assessed as reduction in area of wound coverage at 12.5 ug/mL incubated for 72 hrs by scratch wound healing assay. The note with it: dose 12.5 µg/ml. Type of experiment: functional.
Experiment [21] deals with HepG2. The experiment can be described thus: Antiangiogenic activity against human HepG2 cells assessed as reduction in area of wound coverage at 12.5 ug/mL incubated for 24 hrs by scratch wound healing assay. Type of experiment: functional. The note with it: dose 12.5 µg/ml.
Experiment [22] has as its system Escherichia coli. Description: Bactericidal activity against Escherichia coli ATCC 10799 by serial dilution method. Type of experiment: functional.
Experiment [23] concerns Escherichia coli. Description: Selectivity ratio of MBC for bactericidal activity against Escherichia coli ATCC 10799 to MIC for antimicrobial activity against Escherichia coli ATCC 10799. Type of experiment: functional.

In the case of `CC1(C)S[C@@H]2[C@H](NC(=O)[C@H](N)c3ccccc3)C(=O)N2[C@H]1C(=O)O` [AMPICILLIN], the minimal bactericidal concentration (MBC) with Bacillus subtilis [1] was determined as 32 µg/mL (≈ 91.6 µM); with Staphylococcus aureus [4], 64 µg/mL (≈ 183 µM). Moreover, the MIC in the experiment with Bacillus subtilis [2] turned out to be 8 µg/mL (≈ 22.9 µM); with Staphylococcus aureus [3], 4 µg/mL (≈ 11.4 µM).
Consider `O=c1c(C(NCc2ccc(Cl)cc2)c2ccccc2)csc2ccccc12` (stereo not drawn), for which the MIC in the experiment on Nakaseomyces glabratus stood at 32 µg/mL (≈ 81.6 µM); with Bacillus subtilis [2], 64 µg/mL (≈ 163 µM); with Candida albicans [9] it was 32 µg/mL (≈ 81.6 µM); in the experiment on Pseudomonas aeruginosa [10] it was 32 µg/mL (≈ 81.6 µM); in the experiment on Staphylococcus aureus [3], 64 µg/mL (≈ 163 µM); in the experiment on Escherichia coli [14], 32 µg/mL (≈ 81.6 µM). For the same molecule, the Activity result in the experiment with HepG2 [5] is “Time-dependent-effect”; in the experiment on HepG2 [8], “Dose-dependent-effect”; in the experiment with HepG2 [12] it was 25.83%; in the experiment with HepG2 [13], <70%. Besides, the result in the experiment with HepG2 [6], with HepG2 [7] and in the experiment on HepG2 [11] was Active.
Turning to `OC(Cn1cncn1)(Cn1cncn1)c1ccc(F)cc1F` [FLUCONAZOLE], the MIC with Nakaseomyces glabratus is 16 µg/mL (≈ 52.2 µM); in the experiment on Candida albicans [9] it was 8 µg/mL (≈ 26.1 µM). Moreover, in the experiment on Candida albicans [15], the minimum fungicidal concentration (MFC) was found to be 64 µg/mL (≈ 209 µM).
Regarding `O=c1c(C(NCc2cccc(C(F)(F)F)c2)c2ccccc2)csc2ccccc12` (stereo not drawn), the MIC in the experiment with Nakaseomyces glabratus came to 64 µg/mL (≈ 150 µM); in the experiment on Bacillus subtilis [2], 64 µg/mL (≈ 150 µM); with Candida albicans [9], 32 µg/mL (≈ 75.2 µM); in the experiment on Pseudomonas aeruginosa [10], 32 µg/mL (≈ 75.2 µM); in the experiment with Staphylococcus aureus [3], 64 µg/mL (≈ 150 µM); in the experiment with Escherichia coli [14] it was 32 µg/mL (≈ 75.2 µM). Also, the Activity entry was “Time-dependent-effect” in the experiment on HepG2 [5], “Dose-dependent-effect” in the experiment with HepG2 [8], 28.93% in the experiment on HepG2 [12] and <70% in the experiment on HepG2 [13]. For the same molecule, the result in the experiment on HepG2 [6], with HepG2 [7] and in the experiment on HepG2 [11] was Active.
Turning to `O=c1c(C(NCc2ccccc2)c2ccccc2)csc2ccc(Cl)cc12` (stereo not drawn), the MBC with Bacillus subtilis [1] and in the experiment with Pseudomonas aeruginosa [16] was 64 µg/mL (≈ 163 µM) each time. Besides, the minimal inhibitory concentration (MIC) in the experiment on Nakaseomyces glabratus was found to be 8 µg/mL (≈ 20.4 µM); in the experiment with Bacillus subtilis [2] it was 4 µg/mL (≈ 10.2 µM); in the experiment on Candida albicans [9], 16 µg/mL (≈ 40.8 µM); with Pseudomonas aeruginosa [10] it was 8 µg/mL (≈ 20.4 µM); with Staphylococcus aureus [3] it was 16 µg/mL (≈ 40.8 µM); in the experiment with Escherichia coli [14], 16 µg/mL (≈ 40.8 µM). Moreover, the Activity entry was “Time-dependent-effect” in the experiment on HepG2 [5]; 683000 µm² with HepG2 [18]; “Dose-dependent-effect” with HepG2 [8]; 80% in the experiment on HepG2 [19]; 18.24% in the experiment with HepG2 [12]; 692000 µm² with HepG2 [20]. Also, the Activity with HepG2 [21] was 768000 µm². The outcome in the experiment on HepG2 [6] and in the experiment on HepG2 [7] was Active. In addition, in the experiment with Bacillus subtilis [17], the Selectivity ratio was determined as 16.
For `O=C(O)c1cn(C2CC2)c2cc(N3CCNCC3)c(F)cc2c1=O` [CIPROFLOXACIN], the MBC was determined as 64 µg/mL (≈ 193 µM) against Escherichia coli [22] and 32 µg/mL (≈ 96.6 µM) in the experiment with Pseudomonas aeruginosa [16]. Also, the MIC with Pseudomonas aeruginosa [10] came to 4 µg/mL (≈ 12.1 µM).
`O=c1c(C(NCc2ccc(OC(F)(F)F)cc2)c2ccccc2)csc2ccccc12` (stereo not drawn): the MBC against Bacillus subtilis [1] was determined as 64 µg/mL (≈ 145 µM); in the experiment with Escherichia coli [22], 32 µg/mL (≈ 72.5 µM); in the experiment on Pseudomonas aeruginosa [16] it was 64 µg/mL (≈ 145 µM); in the experiment with Staphylococcus aureus [4], 32 µg/mL (≈ 72.5 µM). Besides, the minimum inhibitory concentration (MIC) was determined as 16 µg/mL (≈ 36.2 µM) in the experiment on Nakaseomyces glabratus; 16 µg/mL (≈ 36.2 µM) with Bacillus subtilis [2]; 16 µg/mL (≈ 36.2 µM) in the experiment on Candida albicans [9]; 16 µg/mL (≈ 36.2 µM) with Pseudomonas aeruginosa [10]; 8 µg/mL (≈ 18.1 µM) with Staphylococcus aureus [3]; 8 µg/mL (≈ 18.1 µM) in the experiment on Escherichia coli [14]. For the same molecule, the Activity entry was “Time-dependent-effect” in the experiment on HepG2 [5], “Dose-dependent-effect” in the experiment with HepG2 [8], 31.19% in the experiment with HepG2 [12] and >70% in the experiment on HepG2 [13]. For the same molecule, the outcome with HepG2 [6], in the experiment on HepG2 [7] and in the experiment on HepG2 [11] was Active. Moreover, the Selectivity ratio worked out at 16 in the experiment with Bacillus subtilis [17] and 4 with Escherichia coli [23].

As usually defined, the MBC is the smallest concentration meeting the test's criterion for killing. The term MIC denotes the least concentration at which growth counts as inhibited. Usually MFC stands for the lowest tested concentration that kills the fungus rather than only halting it.
